Measurements taken from the supplement of paper PMC11061612.

What was measured:
Assay in all cases: combination Emax (second highest fraction inhibited in the dose matrix, 72 h); higher = more inhibition; extreme values may be limits of the assay
[1] = system: SU-DHL-6 (B-Cell Non-Hodgkin's Lymphoma)
Summary of the method: (§1)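 Cell lines grown in DMEM/F12 or RPMI with 10% FBS were plated in 1536-well plates and held 24 hours at 37°C, 5% CO2 before 72 hours of exposure to two-drug dose matrices, with DMSO typically at 0.2%. CellTiter-Glo 2.0 luminescence gave viability, which was converted to inhibition. Vehicle wells were set to 0 and blank wells to 1. Combination Emax is the second-highest inhibition in the matrix, and Bliss excess is the observed combination effect minus the expected EA + EB − EA·EB, where EA and EB are the single-agent effects.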

[2] = system: HDLM-2 (Hodgkin's Lymphoma)
Summary of the method: as §1

NCI-H2795 (Mesothelioma) = system: NCI-H2795 (Mesothelioma)
Summary of the method: as §1

[3] = system: KYSE-410 (Esophageal Squamous Cell Carcinoma)
Summary of the method: as §1

[4] = system: SW626 (Colorectal Carcinoma)
Summary of the method: as §1

[5] = system: OVCAR-8 (Ovarian Carcinoma)
Summary of the method: as §1

[6] = system: 639-V (Bladder Carcinoma)
Summary of the method: as §1

[7] = system: RT-112 (Bladder Carcinoma)
Summary of the method: as §1

[8] = system: MDA-MB-468 (Breast Carcinoma)
Summary of the method: as §1

[9] = system: UMC-11 (Other Solid Carcinomas)
Summary of the method: as §1

[10] = system: CTB-1 (B-Cell Non-Hodgkin's Lymphoma)
Summary of the method: as §1

[11] = system: K5 (Thyroid Gland Carcinoma)
Summary of the method: as §1

Mewo (Melanoma) = system: Mewo (Melanoma)
Summary of the method: as §1

[12] = system: HO-1-u-1 (Oral Cavity Carcinoma)
Summary of the method: as §1

[13] = system: NCI-H747 (Colorectal Carcinoma)
Summary of the method: as §1

NCI-H2461 (Mesothelioma) = system: NCI-H2461 (Mesothelioma)
Summary of the method: as §1

[14] = system: Hs-633T (Other Solid Carcinomas)
Summary of the method: as §1

[15] = system: CAL-51 (Breast Carcinoma)
Summary of the method: as §1

[16] = system: OC-314 (Ovarian Carcinoma)
Summary of the method: as §1

[17] = system: 8305C (Thyroid Gland Carcinoma)
Summary of the method: as §1

Compound	combination Emax [1]	combination Emax [2]	combination Emax (NCI-H2795 (Mesothelioma))	combination Emax [3]	combination Emax [4]	combination Emax [5]	combination Emax [6]	combination Emax [7]	combination Emax [8]	combination Emax [9]	combination Emax [10]	combination Emax [11]	combination Emax (Mewo (Melanoma))	combination Emax [12]	combination Emax [13]	combination Emax (NCI-H2461 (Mesothelioma))	combination Emax [14]	combination Emax [15]	combination Emax [16]	combination Emax [17]
CC(=O)Nc1cccc(-n2c(=O)n(C3CC3)c(=O)c3c(Nc4ccc(I)cc4F)n(C)c(=O)c(C)c32)c1 [Trametinib] + Cc1nc(-c2cn3c(n2)-c2ccc(-c4cnn(C(C)(C)C(N)=O)c4)cc2OCC3)n(C(C)C)n1 [Taselisib] (first compound max 1 µM, 7x7, partner max 10 µM)	1	0.362	1	0.993	0.75	0.594	0.718	0.884	0.799	0.355	0.416	1	0.692	0.987	0.952	0.587	0.917	0.886	0.707	0.945
Cc1c2c(nn1C)CSCc1cc(n(C)n1)CSc1cc(c3ccccc3c1)OCCCc1c(C(=O)O)n(C)c3c-2c(Cl)ccc13 [AZD5991] + CN(C)CCCOc1ccc(-c2ccc3ncc4c(c3c2)n(C2CCOCC2)c(=O)n4C)cn1 [AZD0156] (first compound max 1 µM, 7x7, partner max 1 µM)	1	0.985	0.812	0.236	0.223	0.219	0.239	0.876	0.452	0.486	0.34	0.183	0.225	0.245	0.414	0.307	0.276	0.476	0.239	0.325
Cc1c2c(nn1C)CSCc1cc(n(C)n1)CSc1cc(c3ccccc3c1)OCCCc1c(C(=O)O)n(C)c3c-2c(Cl)ccc13 [AZD5991] + C1CN(CCC1(C(=O)N[C@@H](CCO)C2=CC=C(C=C2)Cl)N)C3=NC=NC4=C3C=CN4 [Capivasertib] (first compound max 1 µM, 7x7, partner max 3 µM)	1	1	0.85	0.174	0.25	0.169	0.177	0.858	0.585	0.29	0.42	0.478	0.199	0.837	0.392	0.464	0.216	0.792	0.297	0.319
CN(CCO)CC[C@H](CSc1ccccc1)Nc1ccc(S(=O)(=O)NC(=O)c2ccc(N3CCC([C@@H](O)c4ccccc4-c4ccc(Cl)cc4)CC3)cc2)cc1S(=O)(=O)C(F)(F)F [AZD4320] + CN(C)CCCOc1ccc(-c2ccc3ncc4c(c3c2)n(C2CCOCC2)c(=O)n4C)cn1 [AZD0156] (first compound max 1 µM, 7x7, partner max 1 µM)	0.986	0.785	0.417	0.108	0.573	0.212	0.19	0.188	0.656	0.567	0.206	0.289	0.147	0.259	0.311	0.259	0.163	0.16	0.165	0.559
Cc1cc2ncnn2cc1Nc1ncc2c(n1)n(C1CCOCC1)c(=O)n2C [AZD7648] + C[C@@H]1COCCN1C2=NC(=NC(=C2)C3(CC3)[S@](=N)(=O)C)C4=C5C=CNC5=NC=C4 [AZD6738] (first compound max 10 µM, 7x7, partner max 10 µM)	0.613	0.373	0.609	0.363	0.619	0.71	0.404	0.93	0.513	0.537	0.802	0.665	0.5	0.845	0.408	0.71	0.855	0.923	0.905	0.609
CC1(C)CCC(CN2CCN(c3ccc(C(=O)NS(=O)(=O)c4ccc(NCC5CCOCC5)c([N+](=O)[O-])c4)c(Oc4cnc5[nH]ccc5c4)c3)CC2)=C(c2ccc(Cl)cc2)C1 [Venetoclax] + C[C@@H](Nc1cc(F)cc(F)c1)c1cc(C(=O)N(C)C)cc2c(=O)cc(N3CCOCC3)oc12 [AZD8186] (first compound max 1 µM, 7x7, partner max 3 µM)	1	0.436	0.441	0.172	0.127	0.139	0.321	0.472	0.387	0.143	0.288	0.735	0.434	0.267	0.344	0.447	0.186	0.0234	0.242	0.441
Cc1c2c(nn1C)CSCc1cc(n(C)n1)CSc1cc(c3ccccc3c1)OCCCc1c(C(=O)O)n(C)c3c-2c(Cl)ccc13 [AZD5991] + CC1(C)CCC(CN2CCN(c3ccc(C(=O)NS(=O)(=O)c4ccc(NCC5CCOCC5)c([N+](=O)[O-])c4)c(Oc4cnc5[nH]ccc5c4)c3)CC2)=C(c2ccc(Cl)cc2)C1 [Venetoclax] (first compound max 1 µM, 7x7, partner max 1 µM)	1	1	0.793	0.156	0.205	0.189	0.194	0.99	0.662	0.821	0.17	0.183	0.653	0.358	0.196	0.181	0.231	0.521	0.147	0.379
CN(C)CCCOc1ccc(-c2ccc3ncc4c(c3c2)n(C2CCOCC2)c(=O)n4C)cn1 [AZD0156] + CCN(CCO)CCCOc1ccc2c(Nc3cc(CC(=O)Nc4cccc(F)c4)[nH]n3)ncnc2c1 [AZD2811] (first compound max 1 µM, 7x7, partner max 1 µM)	0.478	0.178	0.291	0.0555	0.0884	0.26	0.179	0.205	0.363	0.758	0.501	0.244	0.153	0.209	0.167	0.195	0.373	0.196	0.312	0.29
C=CCn1c(=O)c2cnc(Nc3ccc(N4CCN(C)CC4)cc3)nc2n1-c1cccc(C(C)(C)O)n1 [AZD1775] + C[C@@H]1COCCN1C2=NC(=NC(=C2)C3(CC3)[S@](=N)(=O)C)C4=C5C=CNC5=NC=C4 [AZD6738] (first compound max 1 µM, partner max 10 µM)	0.922	0.772	0.803	0.499	0.743	0.966	0.457	0.966	0.634	0.785	0.944	0.749	0.71	0.973	0.706	0.764	0.937	0.936	0.941	0.681
CC1(C)CCC(CN2CCN(c3ccc(C(=O)NS(=O)(=O)c4ccc(NCC5CCOCC5)c([N+](=O)[O-])c4)c(Oc4cnc5[nH]ccc5c4)c3)CC2)=C(c2ccc(Cl)cc2)C1 [Venetoclax] + Cc1cc2ncnn2cc1Nc1ncc2c(n1)n(C1CCOCC1)c(=O)n2C [AZD7648] (first compound max 1 µM, 7x7, partner max 10 µM)	0.853	0.431	0.471	0.23	0.136	0.229	0.244	0.257	0.397	0.414	0.358	0.394	0.509	0.305	0.414	0.528	0.188	0.289	0.251	0.385
CCN(CCO)CCCOc1ccc2c(Nc3cc(CC(=O)Nc4cccc(F)c4)[nH]n3)ncnc2c1 [AZD2811] + C[C@@H]1COCCN1C2=NC(=NC(=C2)C3(CC3)[S@](=N)(=O)C)C4=C5C=CNC5=NC=C4 [AZD6738] (first compound max 1 µM, 7x7, partner max 10 µM)	0.446	0.515	0.674	0.355	0.581	0.797	0.339	0.824	0.563	0.799	0.751	0.635	0.49	0.852	0.306	0.739	0.885	0.922	0.869	0.567
COc1cccc(OCCCN)c1-c1cc(Nc2cnc(C#N)cn2)n[nH]1 [Prexasertib] + Cc1cc2ncnn2cc1Nc1ncc2c(n1)n(C1CCOCC1)c(=O)n2C [AZD7648] (first compound max 1 µM, 7x7, partner max 10 µM)	0.629	0.583	0.765	0.504	0.75	0.984	0.362	0.95	0.533	0.902	0.922	0.704	0.516	0.993	0.396	0.693	0.948	0.916	0.946	0.724
